In brackets after ≈: the same amount, converted by molar mass.
Experiments:
Type in all cases: functional
Haemophilus influenzae = experiment: Minimum inhibitory concentration of the compound against Haemophilus influenzae OC4882 was determined
Streptococcus pneumoniae [1] = experiment: Minimum inhibitory concentration of the compound against erythromycin-susceptible Streptococcus pneumoniae was determined
Streptococcus pneumoniae [2] = experiment: Minimum inhibitory concentration of the compound against 3 […] Streptococcus pneumoniae OC4421 with an mef(A) efflux-mediated resistance was determined
Staphylococcus aureus = experiment: Minimum inhibitory concentration of the compound against erythromycin-susceptible Staphylococcus aureus Smith OC4172 was determined
Streptococcus pneumoniae [3] = experiment: Minimum inhibitory concentration of the compound against 3 […] Streptococcus pneumoniae OC4051 with an erm(B)-ribosomal methylase-mediated resistance was determined
Enterococcus faecalis = experiment: Minimum inhibitory concentration of the compound againstEnterococcus faecalis ATCC 51299 with an erm(B)-encoded ribosomal methylase was determined

Row | Compound | MIC (Haemophilus influenzae) [µg/mL] | MIC (Streptococcus pneumoniae [1]) [µg/mL] | MIC (Streptococcus pneumoniae [2]) [µg/mL] | MIC (Staphylococcus aureus) [µg/mL] | MIC (Streptococcus pneumoniae [3]) [µg/mL] | MIC (Enterococcus faecalis) [µg/mL]
1 | CC[C@H]1OC(=O)[C@@](C)(F)C(=O)[C@H](C)[C@@H](O[C@@H]2O[C@H](C)C[C@H](N(C)C)[C@H]2O)[C@](C)(OC(=O)NC/C=C/c2ccc(-n3cccn3)cc2)C[C@@H](C)C(=O)[C@H](C)[C@H]2NC(=O)O[C@@]21C | 8 (≈ 9.5 µM) | 0.03 (≈ 0.0356 µM) | 0.5 (≈ 0.594 µM) | 0.25 (≈ 0.297 µM) | 0.12 (≈ 0.143 µM) | 8 (≈ 9.5 µM)
2 | CC[C@H]1OC(=O)[C@@](C)(F)C(=O)[C@H](C)[C@@H](O[C@@H]2O[C@H](C)C[C@H](N(C)C)[C@H]2O)[C@](C)(OC(=O)NCc2cn(-c3ncccn3)cn2)C[C@@H](C)C(=O)[C@H](C)[C@H]2NC(=O)O[C@@]21C | 4 (≈ 4.89 µM) | 0.03 (≈ 0.0367 µM) | 0.5 (≈ 0.611 µM) | 0.25 (≈ 0.306 µM) | 0.12 (≈ 0.147 µM) | > 16
3 | CC[C@H]1OC(=O)[C@@](C)(F)C(=O)[C@H](C)[C@@H](O[C@@H]2O[C@H](C)C[C@H](N(C)C)[C@H]2O)[C@](C)(OC(=O)NC/C=C/c2ccccc2)C[C@@H](C)/C(=N\O)[C@H](C)[C@H]2NC(=O)O[C@@]21C | 2 (≈ 2.53 µM) | 0.03 (≈ 0.0379 µM) | 0.5 (≈ 0.632 µM) | 0.25 (≈ 0.316 µM) | 0.12 (≈ 0.152 µM) | > 16
4 | CC[C@H]1OC(=O)[C@@](C)(F)C(=O)[C@H](C)[C@@H](O[C@@H]2O[C@H](C)C[C@H](N(C)C)[C@H]2O)[C@](C)(OC(=O)NC/C=C/c2ccc3ncccc3c2)C[C@@H](C)/C(=N\O)[C@H](C)[C@H]2NC(=O)O[C@@]21C | 2 (≈ 2.38 µM) | 0.03 (≈ 0.0356 µM) | 0.12 (≈ 0.143 µM) | 0.25 (≈ 0.297 µM) | 0.03 (≈ 0.0356 µM) | 2 (≈ 2.38 µM)
5 | CC[C@H]1OC(=O)[C@@](C)(F)C(=O)[C@H](C)[C@@H](O[C@@H]2O[C@H](C)C[C@H](N(C)C)[C@H]2O)[C@](C)(OC(=O)NC/C=C/c2cn(-c3cnccn3)cn2)C[C@@H](C)C(=O)[C@H](C)[C@H]2NC(=O)O[C@@]21C | 8 (≈ 9.48 µM) | 0.03 (≈ 0.0355 µM) | 0.25 (≈ 0.296 µM) | 0.25 (≈ 0.296 µM) | 0.06 (≈ 0.0711 µM) | 16 (≈ 19 µM)
6 | CC[C@H]1OC(=O)[C@@](C)(F)C(=O)[C@H](C)[C@@H](O[C@@H]2O[C@H](C)C[C@H](N(C)C)[C@H]2O)[C@](C)(OC(=O)NC/C=C/c2ccc3ncccc3c2)C[C@@H](C)C(=O)[C@H](C)[C@H]2NC(=O)O[C@@]21C | 4 (≈ 4.84 µM) | 0.06 (≈ 0.0726 µM) | 0.06 (≈ 0.0726 µM) | 0.25 (≈ 0.302 µM) | 0.06 (≈ 0.0726 µM) | 4 (≈ 4.84 µM)
7 | CC[C@H]1OC(=O)[C@@](C)(F)C(=O)[C@H](C)[C@@H](O[C@@H]2O[C@H](C)C[C@H](N(C)C)[C@H]2O)[C@](C)(OC(=O)NC/C=C/c2ccc(-n3cnnc3)cc2)C[C@@H](C)C(=O)[C@H](C)[C@H]2NC(=O)O[C@@]21C | 8 (≈ 9.49 µM) | 0.06 (≈ 0.0712 µM) | 0.5 (≈ 0.593 µM) | 0.5 (≈ 0.593 µM) | 0.12 (≈ 0.142 µM) | > 16
8 | CC[C@H]1OC(=O)[C@@](C)(F)C(=O)[C@H](C)[C@@H](O[C@@H]2O[C@H](C)C[C@H](N(C)C)[C@H]2O)[C@](C)(OC(N)=O)C[C@@H](C)C(=O)[C@H](C)[C@H]2NC(=O)O[C@@]21C | 8 (≈ 12.1 µM) | 0.12 (≈ 0.182 µM) | 2 (≈ 3.03 µM) | 1 (≈ 1.52 µM) | > 16 | > 16
9 | CC[C@H]1OC(=O)[C@@](C)(F)C(=O)[C@H](C)[C@@H](O[C@@H]2O[C@H](C)C[C@H](N(C)C)[C@H]2O)[C@](C)(OC(=O)NC/C=C/c2ccc(-c3cnccn3)cc2)C[C@@H](C)C(=O)[C@H](C)[C@H]2NC(=O)O[C@@]21C | 4 (≈ 4.68 µM) | 0.03 (≈ 0.0351 µM) | 0.06 (≈ 0.0703 µM) | 0.25 (≈ 0.293 µM) | 0.06 (≈ 0.0703 µM) | 4 (≈ 4.68 µM)
10 | CC[C@H]1OC(=O)[C@@](C)(F)C(=O)[C@H](C)[C@@H](O[C@@H]2O[C@H](C)C[C@H](N(C)C)[C@H]2O)[C@](C)(OC(=O)NC/C=C/c2ccc(-c3cccnn3)cc2)C[C@@H](C)/C(=N\O)[C@H](C)[C@H]2NC(=O)O[C@@]21C | 2 (≈ 2.3 µM) | 0.03 (≈ 0.0345 µM) | 0.25 (≈ 0.288 µM) | 0.5 (≈ 0.575 µM) | 0.06 (≈ 0.069 µM) | > 4
11 | CC[C@H]1OC(=O)[C@H](C)[C@@H](O[C@H]2C[C@@](C)(OC)[C@@H](O)[C@H](C)O2)[C@H](C)[C@@H](O[C@@H]2O[C@H](C)C[C@H](N(C)C)[C@H]2O)[C@](C)(O)C[C@@H](C)C(=O)[C@H](C)[C@@H](O)[C@]1(C)O [ERYTHROMYCIN] | 8 (≈ 10.9 µM) | 0.06 (≈ 0.0818 µM) | 4 (≈ 5.45 µM) | 0.5 (≈ 0.681 µM) | > 16 | > 16
12 | CC[C@H]1OC(=O)[C@H](C)C(=O)[C@H](C)[C@@H](O[C@@H]2O[C@H](C)C[C@H](N(C)C)[C@H]2O)[C@](C)(OC)C[C@@H](C)C(=O)[C@H](C)[C@H]2N(CCCCn3cnc(-c4cccnc4)c3)C(=O)O[C@]12C [TELITHROMYCIN] | 2 (≈ 2.46 µM) | ≤ 0.015 | 0.12 (≈ 0.148 µM) | 0.12 (≈ 0.148 µM) | 0.06 (≈ 0.0739 µM) | 16 (≈ 19.7 µM)
